Assay results from patent publication US20080254101A1, “PILOCARPINE COMPOSITIONS AND METHODS OF USE THEREOF” (priority 2004, published 2008).

Key:
[1] = at 37° C., nitrogen in the imidazole group; cited from earlier work
[2] = Ionization of pilocarpine (pKa, pH = pKa + Log10 formula); assay type: physicochemical; settings: at a pH of from about 7.6 to about 8.6, using the formula
Excerpt: Conversion of the ionized form to the un-ionized form for pilocarpine is related to pH according to the formula: pH=pKa+Log10 (un-ionized concentration/ionized concentration). When the pH is the same as the pKa, equimolar concentrations of the un-ionized form and ionized form exist. For basic compounds such as pilocarpine, when the pH is one unit higher than the pKa, the ratio of the un-ionized form to the ionized form is 91:9. Similarly, when the pH is two units higher than the pKa, the ratio of un-ionized form to the ionized form is […]. As noted above, the un-ionized form is lipophilic and, therefore, more capable of passing through mucous membranes such as the oral mucosa than the ionized form, which is lipophobic in nature. Accordingly, increasing the pH of the saliva favors conversion of the ionized form into the un-ionized form for basic compounds such as pilocarpine, and the final pH can be determined by making use of the above formula. For pilocarpine, the tri-substituted nitrogen in the imidazole group controls the extent of ionization and the degree of lipophilicity in any given medium. Typically, the nitrogen in the imidazole group imparts a pKa of about 6.6 to the molecule at 37° C.

conversion to an un-ionized form [2]: about 90%
Compound: CC[C@@H]1C(=O)OC[C@@H]1Cc1cncn1C [pilocarpine]
pKa [1]: about 6.6
